Test results as given in patent US20240002385A1, “PIPERIDINYL-METHYL-PURINE AMINE D-TARTARIC ACID SALTS, CRYSTALLINE FORMS, AND THEIR USE IN TREATING MEDICAL DISEASES AND CONDITIONS” (K36 Therapeutics, Inc., priority 2022, published 2024).
≈ marks a conversion by molar mass, not a printed value.

Experiments:
Type in all cases: physicochemical
[1] = Hygroscopicity by dynamic vapor sorption; details: transitioned from 5% to 95% relative humidity
Procedure: The title compound was analyzed for hygroscopicity by dynamic vapor sorption. Dynamic vapor sorption was performed using a Q5000SA. The sample (5-15 mg) was loaded into a metallic quartz sample pan, suspended from a microbalance, and exposed to a humidified stream of nitrogen gas. Weight changes were relative to a matching empty reference pan opposite the sample, suspended from the microbalance. The sample was held for a minimum of 10 min at each humidity level and only progressed to the next humidity level if there was <0.002% change in weight between measurements (interval: 5 s) or 60 min had elapsed. The following program was used: • 1. Equilibration at 50% RH • 2. 50% to 5% (50%, 35%, 20%, and 5%) • 3. 5% to 95%(5%, 20%, 35%, 50%, 65%, 80%, and 95%) • 4. 95% to 5% (95%, 80%, 65%, 50%, 35%, 20%, and 5%) • 5. 5% to 50%(5%, 20%, 35%, and 50%).

[2] = Water content by Karl Fischer titration
Procedure: The title compound was analyzed for water content by Karl Fischer (KF) titration, and determined to have a water content of 1.22 wt %. Karl Fischer (KF) titration for water determination was performed using a Mettler Toledo C20S Coulometric KF Titrator equipped with a current generator cell with a diaphragm, and a double-platinum-pin electrode. The range of detection of the instrument is 1 ppm to 5% water. Aquastar™ CombiCoulomat fritless reagent was used in both the anode and cathode compartments. Samples of approximately 0.03-0.10 g were dissolved in the anode compartment and titrated until the solution potential dropped below 100 mV. Hydranal 1 wt % water standard was used for validation prior to sample analysis.

[3] = Water solubility of crystalline form at pH 6.8 and 37° C.; details: aqueous buffer, pH 6.8, 37° C.
[4] = Accelerated stability study (six days, 75% RH, 40° C.)
Procedure: An accelerated stability study was conducted on the crystalline form of (S)-1-((R)-3-amino-1-(4-((6-amino-9H-purin-9-yl)methyl)-6-(2,5-difluoro-4-methoxyphenyl) pyridin-3-yl)piperidin-3-yl)-2,2-difluoroethan-1-ol D-tartaric acid salt, prepared as described in Example 1. Approximately 12 mg of solid was placed into a 4-mL vial, and then the vial was covered with a Kimwipe. The vial was stored for six days inside a stability chamber producing a relative humidity of 75% at 40° C.

[5] = One year stability study (25° C.±2° C., 60%±5% RH); details: 25° C./60% RH
Procedure: A one-year stability study was conducted on the crystalline form of (S)-1-((R)-3-amino-1-(4-((6-amino-9H-purin-9-yl)methyl)-6-(2,5-difluoro-4-methoxyphenyl) pyridin-3-yl)piperidin-3-yl)-2,2-difluoroethan-1-ol D-tartaric acid salt having an XRDP pattern as set forth in Example 4. In particular, an aliquot of the crystalline (S)-1-((R)-3-amino-1-(4-((6-amino-9H-purin-9-yl)methyl)-6-(2,5-difluoro-4-methoxyphenyl) pyridin-3-yl)piperidin-3-yl)-2,2-difluoroethan-1-ol D-tartaric acid salt was stored for 1 year at a temperature of 25° C.±2° C. where the relative humidity was 60%±5%. A sample of the crystalline (S)-1-((R)-3-amino-1-(4-((6-amino-9H-purin-9-yl)methyl)-6-(2,5-difluoro-4-methoxyphenyl) pyridin-3-yl)piperidin-3-yl)-2,2-difluoroethan-1-ol D-tartaric acid salt was analyzed at the following time points in the experiment: 0 days (i.e., at the start of the experiment), 1 month, 3 months, 6 months, 9 months, and 12 months. The following parameters were evaluated at each time point: physical appearance, water content by coulometric Karl Fischer (CKF) determination, purity by ultra-performance liquid chromatography (UPLC), and total amount of related substances. XRPD analysis was performed on a compound sample at time points 0 days and at 12 months.

[6] = Six-month stability study at elevated temperature and relative humidity (40° C.±2° C., 75%±5% RH); details: 40° C./75% RH
Procedure: A six-month stability study was conducted on the crystalline form of (S)-1-((R)-3-amino-1-(4-((6-amino-9H-purin-9-yl)methyl)-6-(2,5-difluoro-4-methoxyphenyl) pyridin-3-yl)piperidin-3-yl)-2,2-difluoroethan-1-ol D-tartaric acid salt having an XRDP pattern as set forth in Example 4. In particular, an aliquot of the crystalline (S)-1-((R)-3-amino-1-(4-((6-amino-9H-purin-9-yl)methyl)-6-(2,5-difluoro-4-methoxyphenyl) pyridin-3-yl)piperidin-3-yl)-2,2-difluoroethan-1-ol D-tartaric acid salt was stored for six months at a temperature of 40° C.±2° C. where the relative humidity was 75%±5%. A sample of the crystalline (S)-1-((R)-3-amino-1-(4-((6-amino-9H-purin-9-yl)methyl)-6-(2,5-difluoro-4-methoxyphenyl) pyridin-3-yl)piperidin-3-yl)-2,2-difluoroethan-1-ol D-tartaric acid salt was analyzed at the following time points in the experiment: 0 days (i.e., at the start of the experiment), 1 month, 3 months, and 6 months. The following parameters were evaluated at each time point: physical appearance, water content by coulometric Karl Fischer (CKF) determination, purity by ultra-performance liquid chromatography (UPLC), and total amount of related substances. XRPD analysis was performed on a compound sample at time points 0 days and at 6 months.

[7] = Analysis of aqueous solubility (water and fasted state simulated intestinal fluid); details: 37° C.; for solubility at 24 h: thermodynamic from solid, read-out: Test Compound Solubility
Procedure: Solubility of test compounds in two different liquids was evaluated: (a) water and (b) fasted state simulated intestinal fluid. Test compounds analyzed were: • crystalline (S)-1-((R)-3-amino-1-(4-((6-amino-9H-purin-9-yl)methyl)-6-(2,5-difluoro-4-methoxyphenyl) pyridin-3-yl)piperidin-3-yl)-2,2-difluoroethan-1-ol D-tartaric acid salt, as set forth in Example 4 (hereinafter “Compound A”); • (S)-1-((R)-3-amino-1-(4-((6-amino-9H-purin-9-yl)methyl)-6-(2,5-difluoro-4-methoxyphenyl) pyridin-3-yl)piperidin-3-yl)-2,2-difluoroethan-1-ol fumaric acid salt (hereinafter “Compound B”); • (S)-1-((R)-3-amino-1-(4-((6-amino-9H-purin-9-yl)methyl)-6-(2,5-difluoro-4-methoxyphenyl) pyridin-3-yl)piperidin-3-yl)-2,2-difluoroethan-1-ol free base (hereinafter “Compound C”).
An aliquot of test compound was placed in the liquid at a temperature of 37° C., and then after 24 hours the concentration of dissolved test compound was determined. pH of the solution at 24 hours was also measured.

[8] = Salt form observations: hydrate formation and hygroscopicity
[9] = fassif, fasted state simulated intestinal fluid
[10] = fasted state simulated intestinal fluid

COc1cc(F)c(-c2cc(Cn3cnc4c(N)ncnc43)c(N3CCC[C@](N)([C@H](O)C(F)F)C3)cn2)cc1F.O=C(O)C(O)C(O)C(=O)O [Compound A, (S)-1-((R)-3-amino-1-(4-((6-amino-9H-purin-9-yl)methyl)-6-(2,5-difluoro-4-methoxyphenyl)pyridin-3-yl)piperidin-3-yl)-2,2-difluoroethan-1-ol D-tartaric acid salt]
increase in weight in dynamic vapor sorption [1]: 4.858% | water content by Karl Fischer (KF) titration [2]: 1.22 wt % | solubility at 30 min ([3]; after 30 minutes): > 2000 µg/mL | solubility at 24 h ([3]; after 24 hours): > 2000 µg/mL | XRPD of recovered salt ([4]; after six days, 75% relative humidity, 40° C.): no change of the crystalline form | purity by HPLC ([4]; after the study: six days, 75% relative humidity, 40° C.): 99.45 area percent | purity by HPLC ([4]; before the study): 99.53 area percent | API Purity by UPLC ([5]; 1 month): 99.9 % area in LC trace | Physical Appearance ([5]; 1 month): white | Total Amount of Related Substances by UPLC ([5]; 1 month): 0.05 % w/w | Water Content by CKF ([5]; 1 month): 0.3 % w/w | API Purity by UPLC ([5]; 3 months): 100.0 % area in LC trace | Physical Appearance ([5]; 3 months): white | Total Amount of Related Substances by UPLC ([5]; 3 months): 0.05 % w/w | Water Content by CKF ([5]; 3 months): 0.4 % w/w | API Purity by UPLC ([5]; 6 months): 100.0 % area in LC trace | Physical Appearance ([5]; 6 months): white | Total Amount of Related Substances by UPLC ([5]; 6 months): <0.05 % w/w | Water Content by CKF ([5]; 6 months): 0.3 % w/w | API Purity by UPLC ([5]; 9 months): 100.0 % area in LC trace | Physical Appearance ([5]; 9 months): white | Total Amount of Related Substances by UPLC ([5]; 9 months): <0.05 % w/w | Water Content by CKF ([5]; 9 months): 0.2 % w/w | API Purity by UPLC ([5]; 12 months): 100.0 % area in LC trace | Physical Appearance ([5]; 12 months): white | Total Amount of Related Substances by UPLC ([5]; 12 months): 0.05 % w/w | Water Content by CKF ([5]; 12 months): 0.3 % w/w | API Purity by UPLC ([5]; day 0): 100.0 % area in LC trace | Physical Appearance ([5]; day 0): white wolid | Total Amount of Related Substances by UPLC ([5]; day 0): <0.05 % w/w | Water Content by CKF ([5]; day 0): 0.2 % w/w | XRPD spectrum after storage versus day 0 ([5]; stored for 12 months): matched the XRPD spectrum obtained on said compound at the beginning of the stability study | API Purity by UPLC ([6]; 1 month): 100.0 % area in LC trace | Physical Appearance ([6]; 1 month): white wolid | Total Amount of Related Substances by UPLC ([6]; 1 month): 0.05 % w/w | Water Content by CKF ([6]; 1 month): 0.4 % w/w | API Purity by UPLC ([6]; 3 months): 100.0 % area in LC trace | Physical Appearance ([6]; 3 months): white wolid | Total Amount of Related Substances by UPLC ([6]; 3 months): 0.05 % w/w | Water Content by CKF ([6]; 3 months): 0.4 % w/w | API Purity by UPLC ([6]; 6 months): 100.0 % area in LC trace | Physical Appearance ([6]; 6 months): white wolid | Total Amount of Related Substances by UPLC ([6]; 6 months): <0.05 % w/w | Water Content by CKF ([6]; 6 months): 0.4 % w/w | API Purity by UPLC ([6]; day 0): 100.0 % area in LC trace | Physical Appearance ([6]; day 0): white wolid | Total Amount of Related Substances by UPLC ([6]; day 0): <0.05 % w/w | Water Content by CKF ([6]; day 0): 0.2 % w/w | XRPD spectrum after storage versus day 0 ([6]; stored for 6 months): matched the XRPD spectrum obtained on said compound at the beginning of the stability study | solubility at 24 h [7, 9]: 1600 µg/mL | pH of Liquid Medium at 24 Hours [7, 10]: 5.71 | solubility at 24 h ([7]; water): 2400 µg/mL | pH of Liquid Medium at 24 Hours ([7]; water): 3.59 | hydrate formation / anhydrous form [8]: could be obtained in anhydrous form | hygroscopicity ([8]; long-duration stability studies): low hygroscopicity

COc1cc(F)c(-c2cc(Cn3cnc4c(N)ncnc43)c(N3CCC[C@](N)([C@H](O)C(F)F)C3)cn2)cc1F.O=C(O)/C=C/C(=O)O [Compound B, (S)-1-((R)-3-amino-1-(4-((6-amino-9H-purin-9-yl)methyl)-6-(2,5-difluoro-4-methoxyphenyl)pyridin-3-yl)piperidin-3-yl)-2,2-difluoroethan-1-ol fumaric acid salt]
solubility at 24 h [7, 9]: 506 µg/mL | pH of Liquid Medium at 24 Hours [7, 10]: 6.06 | solubility at 24 h ([7]; water): 488 µg/mL | pH of Liquid Medium at 24 Hours ([7]; water): 4.03 | hydrate formation / anhydrous form [8]: observed to form hydrates

COc1cc(F)c(-c2cc(Cn3cnc4c(N)ncnc43)c(N3CCC[C@](N)([C@H](O)C(F)F)C3)cn2)cc1F [Compound C, (S)-1-((R)-3-amino-1-(4-((6-amino-9H-purin-9-yl)methyl)-6-(2,5-difluoro-4-methoxyphenyl)pyridin-3-yl)piperidin-3-yl)-2,2-difluoroethan-1-ol free base]
solubility at 24 h [7, 9]: 298 µg/mL (≈ 545 µM) | pH of Liquid Medium at 24 Hours [7, 10]: 6.61 | solubility at 24 h ([7]; water): 0.2 µg/mL (≈ 0.366 µM) | pH of Liquid Medium at 24 Hours ([7]; water): 6.92

COc1cc(F)c(-c2cc(Cn3cnc4c(N)ncnc43)c(N3CCC[C@](N)([C@H](O)C(F)F)C3)cn2)cc1F.Cl [hydrochloric acid salt]
hydrate formation / anhydrous form [8]: observed to form hydrates
